Reference: patent US20220096484A1, “METHODS AND COMPOSITIONS FOR TREATING CANCER BY TARGETING FATP2 AND MYELOID DERIVED SUPPRESSOR CELLS” (The Wistar Institute of Anatomy and Biology, priority 2019, published 2022)

What was measured:
[1] = tested on: PMN differentiated from HPCs; assay: PMN generated from HPC in the presence of GM-CSF and arachidonic acid; format: cell-based, mouse
Procedure: Single cells suspensions from spleen and tumors were prepared as described above. Then cells were stained and sorted on BD FACS Aria BD (Biosciences). PMN-MDSC)(CD45^+ CD11b^+Ly6G^+Ly6C^lo and M-MDSC (CD45^+ CD11b^+Ly6G^−Ly6C^hi) were plated in U-bottom 96-well plates (3 replicates) in RPMI with 10% FBS and co-cultured at different ratios with splenocytes from Pmel or OT-1 transgenic mice in the presence of cognate peptides: OT-1 (SIINFEKL; 0.1 ng/ml), Pmel (EGSRNQDWL; 0.1 μg/ml). After 48 h, cells were incubated with [^3H]-thymidine (PerkinElmer) for 16-18 h. Proliferation was measured by using TopCount NXT instrument (PerkinElmer).
RNA was extracted using Total RNA Kit according to manufacturer's instructions. DNase digestion was performed cDNA was generated with High-Capacity cDNA Reverse Transcription Kit (Applied Biosystems, Foster City, Calif., USA). qRT-PCR was performed using Power SYBR Green PCR Master Mix (Applied Biosystems) in 96- or 384 well plates. Plates were read with ABI 7900 (Applied Biosystems).
Mouse neutrophils were generated from enriched bone marrow hematopoietic progenitor cells (HPCs) with 20 ng/ml of GM-CSF. Briefly, HPCs were isolated from mouse BM by using Lineage depletion kit (Miltenyi), according to manufacturer's instructions. Cells were seeded at 25000 cell/ml in 24 well plates and GM-CSF (20 ng/ml), 20% v/v TES or arachidonic acid (10 μM) were added at day 0 and day 3. At day 5, Ly6G positive neutrophils were isolated by using anti-Ly6G biotin (Miltenyi) and streptavidin beads (Miltenyi), according to manufacturer's instructions.
HPCs were isolated from mouse BM by using Lineage depletion kit (Miltenyi), according to manufacturer's instructions. HPC were resuspended in serum-free medium (SFM) containing lentiviral vectors followed by centrifugation of the plate at 1000 rpm for 20 min at 25° C. Fresh media supplemented with GM-CSF (20 ng/ml) was then added and cells were seeded at 25000 cell/ml in 24 well plates. At day 3, GM-CSF and 20% v/v TES were added to the culture. At day 5, cells were collected, stained with PE conjugated anti mouse Ly6G, APC conjugated anti mouse Ly6C and BV421 conjugated anti-mouse CD11b, and GFP^− and GFP^+Ly6G^+ cells were sorted on BD FACS Melody (BD Biosciences). GFP^− and GFP^+Ly6G^+ cells were seeded at 2.000.000 cells/ml in presence of GM-CSF and TES and incubated for further 24 hours. Pellets and supernatants were collected for further analysis. PGE2 concentration in supernatants was measured by using PGE2 ELISA KIT (Invitrogen), according to manufacturer's instructions.

[2] = tested on: pSTAT5 / FATP2 in human PMNs; assay: Human PMN from healthy donors treated with GM-CSF (pSTAT5, FATP2); format: cell-based; settings: human PMNs from blood of healthy donors
Text: FIG. 12A, Lipid accumulation (measured by BODIPY staining) in M-MDSCs isolated from the blood of patients with cancer or healthy individuals. Each circle indicates an individual. FIG. 12B, Amount of lipids (BODIPY staining) in M-MDSCs from blood and tumor tissue of patients with cancer. Each circle indicates an individual (n=5). FIG. 12C, RNA-seq analysis of genes involved in lipid accumulation in human LOX1^+ PMN-MDSCs and LOX1^− PMNs (n=4). FIG. 12D, PTGES expression in LOX1^+ and LOX1^− PMNs from blood of patients with cancer. Fold change compared with LOX1^− PMNs (n=3). FIG. 12E, SLC27A2 expression in M-MDSCs and monocytes isolated from blood of patients with cancer and healthy donors, respectively. Each circle indicates an individual (n=4-6). Data are mean±s.d. FIG. 12F, pSTAT5 by flow cytometry at different time points, in human PMNs isolated from the blood of healthy donors and treated with different amounts of GM-CSF. FIG. 12G, FATP2 in PMNs isolated from blood of healthy donors and treated with GM-CSF. Representative of three independent experiments. FIG. 12H, Content of total phosphatidylethanolamine (PE) and arachidonoyl-containing phosphatidylethanolamine (AA-PE) in PMN-MDSCs isolated from patients with lung cancer (n=5) or healthy donors (n=4). Each circle indicates an individual. Data are mean±s.d. *P<0.05, **P<0.01, ***P<0.001, ****P<0.0001, unpaired two-sided Student's t-test. […]

STAT5 / FATP2 in PMN = assay: Mouse bone marrow PMN treated with GM-CSF (pSTAT5 flow cytometry, FATP2 Western blot); format: cell-based
Procedure: Cells were lysed in RIPA buffer (Sigma-Aldrich) in presence of protease inhibitor cocktail (Sigma-Aldrich), sonicated and stored at −80° C. Whole cell lysates were prepared and subjected to 10% SDS-PAGE and transferred to PVDF membrane. The membranes were probed overnight at 4° C. with the antibodies specific for FATP2 (SLC27A2) (ThermoFisher), ACTIN, GAPDH, STAT5 (Cell Signaling Technology). Membranes were washed and incubated for 1 h at room temperature with secondary antibody conjugated with peroxidase.
Slc27a2 promoter has a binding site for the transcription factor STAT5 (http://jaspar.genereg.net). STAT5 can be activated by GM-CSF, which plays a critical role in myelopoiesis and expansion of MDSC^23. To explore whether GM-CSF might control slc27a2 expression through STAT5 activation we treated PMN isolated from BM of tumor free mice with GM-CSF for 2 hrs. […] To confirm the role of STAT5 in controlling the expression of slc27a2 in PMN, we crossed Stat5″ mice with S100A8-cre mice to target the deletion of Stat5 to PMN. In the absence of Stat5 in PMN, the tumor growth was slower than in control mice (FIG. 11I). This was associated with lower expression of slc27a2 in PMN (FIG. 11J).

[3] = PMN differentiated from HPC in the presence of AA

| Molecule | expansion of PMN-MDSC ([1]; HPC with GM-CSF and AA (10 μM)) | suppression of antigen specific T cell responses by the generated PMN ([1]; HPC with GM-CSF and AA (10 μM)) | expression of nox2 [1, 3] | production of PGE2 [1, 3] | FATP2 [2] | pSTAT5 [2] | FATP2 protein (STAT5 / FATP2 in PMN; PMN from BM of tumor free mice, GM-CSF) | activation of STAT5 (pSTAT5) (STAT5 / FATP2 in PMN; PMN from BM of tumor free mice, GM-CSF for 2 hrs) | expression of FATP2 in Stat5 deficient PMN (STAT5 / FATP2 in PMN; Stat5 deficient PMN, GM-CSF) |
| --- | --- | --- | --- | --- | --- | --- | --- | --- | --- |
| CCCCC/C=C\C/C=C\C/C=C\C/C=C\CCCC(=O)O [AA, arachidonic acid] | favored the expansion of PMN-MDSC | suppressed antigen specific T cell responses | increased expression of nox2 | higher production of PGE2 | – | – | – | – | – |
| GM-CSF: cytokine that activates STAT5; plays a critical role in myelopoiesis and expansion of MDSC | – | – | – | – | up-regulated | up-regulated | up-regulation of FATP2 | dose-dependent activation of STAT5 | failed to increase the expression of FATP2 |
